ChEMBL document CHEMBL1201862, “PubChem BioAssay data set” (2004)
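These data come from cells grown in 96-well plates and exposed to compound for 48 hours at five concentrations. GI50 = concentration required for 50% inhibition of growth.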 Calls of active or inactive are those of the source. Cut-off read from the data, not from the text of the source: active = GI50 up to about 1.1 µM and inactive = higher.

What was measured:
Assay in all cases: NCI-60 cell line screen, 48 h
786-0 = tested on: 786-0
A549 = tested on: A549
ACHN = tested on: ACHN
BT-549 = tested on: BT-549
DU-145 = tested on: DU-145
MDA-N = tested on: MDA-N
Malme-3M = tested on: Malme-3M
OVCAR-3 = tested on: OVCAR-3
PC-3 = tested on: PC-3
RXF 393 = tested on: RXF 393
SF-268 = tested on: SF-268
SNB-19 = tested on: SNB-19
UACC-257 = tested on: UACC-257
CCRF-CEM = tested on: CCRF-CEM
MOLT-4 = tested on: MOLT-4
SN12C = tested on: SN12C
U-251 = tested on: U-251
K562 = tested on: K562
RPMI-8226 = tested on: RPMI-8226

Row | SMILES | GI50 (786-0) | GI50 (A549) | GI50 (ACHN) | GI50 (BT-549) | GI50 (DU-145) | GI50 (MDA-N) | GI50 (Malme-3M) | GI50 (OVCAR-3) | GI50 (PC-3) | GI50 (RXF 393) | GI50 (SF-268) | GI50 (SNB-19) | GI50 (UACC-257) | GI50 (CCRF-CEM) | GI50 (MOLT-4) | GI50 (SN12C) | GI50 (U-251) | GI50 (K562) | GI50 (RPMI-8226)
1 | CN(C)c1ccc(/C=N/CC2CCCN3CCCCC23)cc1 (configuration not stated) | > 100 µM (inactive) | > 100 µM (inactive) | > 100 µM (inactive) | > 100 µM (inactive) | > 100 µM (inactive) | > 100 µM (inactive) | > 100 µM (inactive) | > 100 µM (inactive) | > 100 µM (inactive) | 47.3 µM (inactive) | > 100 µM (inactive) | > 100 µM (inactive) | > 100 µM (inactive) |  |  |  |  |  | 
2 | O=C1Nc2ccccc2/C1=N/Nc1nc(-c2ccc(Br)cc2)cs1 | 17.3 µM (inactive) | 25.2 µM (inactive) | 17.5 µM (inactive) | 20 µM (inactive) | 23.3 µM (inactive) | 41.5 µM (inactive) |  | 20.7 µM (inactive) | 28.6 µM (inactive) | 43.9 µM (inactive) | 20 µM (inactive) | 18.5 µM (inactive) | 22.7 µM (inactive) | 15.7 µM (inactive) | 74.8 µM (inactive) | 27.1 µM (inactive) | 14.3 µM (inactive) |  | 
3 | O=[N+]([O-])c1cccc(/N=C2\c3ccccc3CN2c2cccc([N+](=O)[O-])c2)c1 | 50.7 µM (inactive) | > 100 µM (inactive) | 74.5 µM (inactive) | > 100 µM (inactive) | > 100 µM (inactive) | > 100 µM (inactive) |  | 65 µM (inactive) | 72.8 µM (inactive) | 31.9 µM (inactive) | 81.5 µM (inactive) | > 100 µM (inactive) | > 100 µM (inactive) |  | > 100 µM (inactive) | > 100 µM (inactive) | > 100 µM (inactive) | > 100 µM (inactive) | > 100 µM (inactive)
4 | CSc1c(C#N)c(S)n(-c2ccc(Cl)cc2)c(=O)c1C#N | > 100 µM (inactive) | > 100 µM (inactive) |  | > 100 µM (inactive) | > 100 µM (inactive) | > 100 µM (inactive) | > 100 µM (inactive) | > 100 µM (inactive) | 76.9 µM (inactive) | 93.3 µM (inactive) | > 100 µM (inactive) | > 100 µM (inactive) | > 100 µM (inactive) | 32.5 µM (inactive) | 44.2 µM (inactive) | > 100 µM (inactive) | > 100 µM (inactive) | 63 µM (inactive) | 38.7 µM (inactive)
5 | O=S(=O)(c1ccccc1)c1cccc2c1NCCC2 | 78.7 µM (inactive) | 33.3 µM (inactive) | 58.9 µM (inactive) | 20.8 µM (inactive) | 59.4 µM (inactive) | 47.2 µM (inactive) | 29.1 µM (inactive) | 50.7 µM (inactive) | 31.1 µM (inactive) | 27.7 µM (inactive) | 72.1 µM (inactive) | 39.2 µM (inactive) | 23.6 µM (inactive) | 46.8 µM (inactive) | 28.7 µM (inactive) | 42.7 µM (inactive) |  | 35.6 µM (inactive) | 56.1 µM (inactive)
6 | Cc1ccc(S(=O)(=O)OC2C3OC(C)(C)OC3OC2C(c2cc(O)c3c(c2O)C(=O)c2ccccc2C3=O)c2cc(O)c3c(c2O)C(=O)c2ccccc2C3=O)cc1 (configuration not stated) | > 10 µM (inactive) | > 10 µM (inactive) | > 10 µM (inactive) | > 10 µM (inactive) | > 10 µM (inactive) | > 10 µM (inactive) | > 10 µM (inactive) | > 10 µM (inactive) | > 10 µM (inactive) |  | > 10 µM (inactive) | > 10 µM (inactive) | > 10 µM (inactive) | > 10 µM (inactive) | > 10 µM (inactive) | > 10 µM (inactive) | > 10 µM (inactive) | > 10 µM (inactive) | > 10 µM (inactive)
7 | Cc1c(C(C)C)cc(OCCO)cc1C(C)C | 24.4 µM (inactive) | 38.3 µM (inactive) | 51.4 µM (inactive) | 37.2 µM (inactive) | 73.6 µM (inactive) | 31.2 µM (inactive) |  | 47.5 µM (inactive) | 30.8 µM (inactive) | 16.6 µM (inactive) | 35.5 µM (inactive) | 66.2 µM (inactive) | 35.2 µM (inactive) | 35.4 µM (inactive) | 34.1 µM (inactive) | 30.2 µM (inactive) | 40.6 µM (inactive) | 41.7 µM (inactive) | 25.2 µM (inactive)
8 | O=c1cc(-c2ccccc2)oc2c(-c3cc(Cl)cc4c(=O)cc(-c5ccccc5)oc34)cc(Cl)cc12 | 27.4 µM (inactive) | 29.1 µM (inactive) | 16.2 µM (inactive) | 29.6 µM (inactive) | 36.3 µM (inactive) | 17.3 µM (inactive) | 27 µM (inactive) | 24.3 µM (inactive) | 7.87 µM (inactive) | 26.2 µM (inactive) | 32.8 µM (inactive) | 29.4 µM (inactive) |  | 5.48 µM (inactive) | 10.2 µM (inactive) | 32.8 µM (inactive) | 19 µM (inactive) | 6.87 µM (inactive) | 25.2 µM (inactive)
9 | Cc1ccc(/C=C/C(=N/NC(=O)N/N=C(/C=C/c2ccc(C)cc2)C(C)(C)CN2CCCCC2)C(C)(C)CN2CCCCC2)cc1 | 1.39 µM (inactive) | 1.52 µM (inactive) | 2 µM (inactive) | 2.1 µM (inactive) | 3.48 µM (inactive) | 1.52 µM (inactive) | 1.67 µM (inactive) | 1.48 µM (inactive) | 1.69 µM (inactive) | 1.28 µM (inactive) | 1.81 µM (inactive) | 2.11 µM (inactive) | 1.72 µM (inactive) | 1.3 µM (inactive) | 0.125 µM (active) | 1.61 µM (inactive) | 1.48 µM (inactive) | 0.122 µM (active) | 0.258 µM (active)
10 | COC(=O)C(=O)C(C(=O)C(=O)Nc1cccc([N+](=O)[O-])c1)c1nc2ccc(Cl)cc2nc1O (configuration not stated) | > 100 µM (inactive) | > 100 µM (inactive) | > 100 µM (inactive) | > 100 µM (inactive) | > 100 µM (inactive) | > 100 µM (inactive) |  | > 100 µM (inactive) | > 100 µM (inactive) | > 100 µM (inactive) | > 100 µM (inactive) | > 100 µM (inactive) | > 100 µM (inactive) | > 100 µM (inactive) | > 100 µM (inactive) | > 100 µM (inactive) | > 100 µM (inactive) |  | 
11 | CCOC(=O)c1nc2ccccc2nc1Oc1ccc(F)cc1 | > 100 µM (inactive) | > 100 µM (inactive) | 84.3 µM (inactive) | > 100 µM (inactive) | > 100 µM (inactive) | > 100 µM (inactive) |  | > 100 µM (inactive) | > 100 µM (inactive) | 46.8 µM (inactive) | 55.8 µM (inactive) | > 100 µM (inactive) | > 100 µM (inactive) | > 100 µM (inactive) |  | > 100 µM (inactive) | 69.2 µM (inactive) | > 100 µM (inactive) | > 100 µM (inactive)
12 | COc1ccc2oc(=O)c(-c3csc(-c4ccccc4)n3)cc2c1 | 17.9 µM (inactive) | 64.7 µM (inactive) | 32 µM (inactive) | 21.4 µM (inactive) | > 100 µM (inactive) | > 100 µM (inactive) |  |  | 89.5 µM (inactive) | 24.9 µM (inactive) | 28.8 µM (inactive) | 20.5 µM (inactive) | > 100 µM (inactive) | > 100 µM (inactive) | > 100 µM (inactive) |  | 21.9 µM (inactive) | > 100 µM (inactive) | 87.3 µM (inactive)
13 | O=C(O)C(Cc1cc(I)c(O)c(I)c1)C1CCCCC1 (configuration not stated) | 51.9 µM (inactive) | 31.9 µM (inactive) | 30.3 µM (inactive) | 34.5 µM (inactive) | 33 µM (inactive) | 43.5 µM (inactive) | 37.7 µM (inactive) | 15.6 µM (inactive) | 18.3 µM (inactive) | 34.2 µM (inactive) | 36.2 µM (inactive) | 35.6 µM (inactive) | 45.3 µM (inactive) | 51.1 µM (inactive) | 28.4 µM (inactive) | 32.2 µM (inactive) | 22.3 µM (inactive) | 66.2 µM (inactive) | 
14 | Cc1ccc(-c2c(C#N)c(N)[nH]c(=S)c2C#N)cc1 | 26.1 µM (inactive) | 58.5 µM (inactive) | 79.3 µM (inactive) | 34.1 µM (inactive) | 50.8 µM (inactive) | 18.5 µM (inactive) | 26.4 µM (inactive) | 35.2 µM (inactive) | 33 µM (inactive) | 18.7 µM (inactive) | 31.9 µM (inactive) | 77.1 µM (inactive) | 34.5 µM (inactive) |  | 16.6 µM (inactive) | 22.3 µM (inactive) | 49.1 µM (inactive) | 21.1 µM (inactive) | 17.7 µM (inactive)
15 | Cc1ncc(COP(=O)(O)O)c(/C=C2\SC(=S)NC2=O)c1O | > 100 µM (inactive) | > 100 µM (inactive) | > 100 µM (inactive) | > 100 µM (inactive) | > 100 µM (inactive) | > 100 µM (inactive) | > 100 µM (inactive) | > 100 µM (inactive) | > 100 µM (inactive) | > 100 µM (inactive) | > 100 µM (inactive) | > 100 µM (inactive) | > 100 µM (inactive) |  | > 100 µM (inactive) | > 100 µM (inactive) | > 100 µM (inactive) | > 85.7 µM (inactive) | > 100 µM (inactive)
16 | C/C=C1/CN2CCC34C5=CC(=O)C(c6cc7c(cc6OC)N(C)C6=C(C(=O)OC)CC8(CC)CCCN9CCC67C98)=CC5=NC23CCC1C4C(=O)OC (configuration not stated) | 12.1 µM (inactive) | 16.2 µM (inactive) | 15.6 µM (inactive) | 16 µM (inactive) | 18.7 µM (inactive) | 14 µM (inactive) | 15 µM (inactive) | 14.3 µM (inactive) | 13 µM (inactive) | 10.3 µM (inactive) | 18 µM (inactive) | 16 µM (inactive) | 14 µM (inactive) | 2.28 µM (inactive) | 2.45 µM (inactive) | 14.5 µM (inactive) | 15.2 µM (inactive) | 3.48 µM (inactive) | 4.04 µM (inactive)
